Test results as given in US12522587B2, “Cancer treatments targeting cancer stem cells” (Remedy Plan, Inc., priority 2018, dated 2026).
pIC50: −log10 of the molar value.

Experiments:
Type in all cases: cell-based
[1] = tested on: Primary CD-1 mouse hepatocytes; assay: Hepatocyte toxicity assay (CellTiter Glo); details: 10 μM daily for 4 days, FIG. 4
Protocol: Fresh Primary CD-1 mouse hepatocytes were obtained from XenoTech in 96-well plates the day after perfusion. After 24 hrs of recovery at 37° C. using OptiCulture Hepatocyte Media, medium was replaced containing either DMSO alone (no drug treatment) or 10 μM of compound I-1 daily for 4 days. Cell viability was measured using CellTiter Glo 2.0 Kit from PROMEGA, following manufacturer instructions. Luminescence was measured using a SynergyHTX plate reader with a 1 sec integration.
Normal, healthy mouse hepatocytes were treated with DMSO alone (no drug treatment) or 10 µM of compound I-1 for 4 days. Cell health was measured using CELLTITER GLO reagent, which provided a luminescence readout as a measurement of total ATP concentration.

A498 = assay: Growth inhibition of cancer cell lines; details: Homo sapiens; A498, kidney carcinoma; 50% inhibition of growth
Description: (§1) We tested the ability of compound I-1 to inhibit the growth of 12 additional cell lines, derived from a variety of different types of human cancer.

GIST T1 = assay: Growth inhibition of cancer cell lines; details: Homo sapiens, GISTT1; GIST T1, gastrointestinal stromal tumor; 50% inhibition of growth
Description: as §1

RL = assay: Growth inhibition of cancer cell lines; details: Homo sapiens, non-Hodgkin's lymphoma, 50% inhibition of growth
Description: as §1

UACC-62 = assay: Growth inhibition of cancer cell lines; details: Homo sapiens; UACC-62, melanoma; 50% inhibition of growth
Description: as §1

CFPAC-1 = assay: Growth inhibition of cancer cell lines; details: Homo sapiens; CFPAC-1, pancreatic adenocarcinoma; 50% inhibition of growth
Description: as §1

Q: What does the source list for `CCC(=O)N1CCc2cc(-c3ccc(C(=O)NCc4cccnc4)cc3)ccc21` [Compound I-1]?
A: toxicity to healthy hepatocytes [1]: no toxicity; pIC50 (A498): < 5.00; pIC50 (GIST T1): 6.01; pIC50 (RL): 6.89; pIC50 (UACC-62): < 5.00; pIC50 (CFPAC-1): 5.08
